# Laboratory results published in patent publication US20230355605A1, “DRUG FOR ENHANCING FIBRINOLYTIC SYSTEM, AND USE THEREFOR” (priority 2020, published 2023).
# Experiments:
# rats [1] = test: 4-week repeated oral dose toxicity study in rats; format: in vivo
# [2] = system: conscious cynomolgus monkeys; test: Effect on cardiovascular and respiratory system (telemetry, blood gas); format: in vivo, cynomolgus monkey; settings: single oral dose, up to 300 mg/kg
# Description: The effect of the present compound on the cardiovascular system and the respiratory system was examined by a telemetry method and blood gas measurement using conscious cynomolgus monkeys. Systemic exposure of the test substance was also evaluated. Specifically, a control substance (a 0.5 w/v% carmellose sodium aqueous solution) and the present compound were orally administered at single ascending dosages at intervals of 7 days, and the heart rate, blood pressure (systolic blood pressure, diastolic blood pressure, and mean blood pressure), electrocardiogram (PR interval, QRS duration, QT interval, and QTc interval), respiratory rate, and body temperature were measured before administration and 1, 2, 4, 6, and 24 hours after administration on each administration day with the monkeys unanesthetized and unrestrained. Furthermore, before administration and 2, 6, and 24 hours after administration on each administration day, arterial blood was collected, and blood gases (oxygen partial pressure, carbon dioxide partial pressure, pH, and oxygen saturation) were measured. Systemic exposure was also evaluated by measuring the concentration of the test substance in plasma.
# [3] = system: patients with COVID-19 pneumonia (mild to moderate); test: Effectiveness study for COVID-19 pneumonia (exploratory early phase II study); format: in vivo, human
# Description: The effect of the present compound to prevent the aggravation of COVID-19 pneumonia and its safety were explored.
# Occurrence of transition to oxygen supply treatment under mechanical ventilation after the oral administration of the present compound (occurrence of deterioration of oxygenation)
# • (a) Survival for 28 days from the start of administration of the present compound • (b) Duration of hospitalization after the start of administration of the present compound • (c) Number of days required for oxygen administration after the start of administration of the present compound (d) Changes in the proportion of lesions in the lung field on chest CT images before and after the administration of the present compound
# Occurrence of adverse events after the start of administration of the present compound until the end of observation
# [4] = format: physicochemical
# Description: The present compound (yellowish white powder) was prepared in the following shipping packaging form and then subjected to an accelerated stability study (40° C., 75% RH, 6 months).
# Inner package: A double polyethylene bag (100 × 200 mm) was filled with the present compound and sealed with a zip tie. Outer package: The double polyethylene bag filled with the present compound was placed in a fiber drum, and the fiber drum was sealed.
# The present compound was stored in the above packaging form under the conditions of 40° C.12° C. and 75% RH15% RH for 6 months. At points after 1 month, 3 months, and 6 months, appearance observation, an identification test (ultraviolet spectrum, infrared absorption spectrum, flame reaction), water content analysis (water absorption), analysis of the content of the present compound, and a purity test (impurity profile) were performed to evaluate the stability of the present compound.
# rats [5] = test: Reproductive and developmental toxicity study (fertility and early embryogenesis); format: in vivo, rat; settings: oral, male and female rats
# Description: The effect of oral administration of the present compound on fertility and early embryogenesis up to implantation was examined using rats. Specifically, the present compound was orally administered to male and female rats for 2 weeks before mating, during mating, until the day before necropsy for the males, and until day 7 of gestation for the females, and the effect on fertility and early embryogenesis of the parents was examined. During the study period, the general conditions, body weights, and food consumption of all of the animals were observed and measured, and a fertility test was performed for the males and females. For the females, an estrous cycle test was performed, and a Cesarean section test was performed at day 13 of gestation. In the females, necropsy was performed at the time of Cesarean section, and in the males, necropsy was performed after completion of the Cesarean section of females.
# [6] = system: immature rat bone marrow erythrocytes; test: Micronucleus study in rats; settings: in vivo
# Description: The present compound was orally administered to rats to examine its micronucleus-inducing properties and bone marrow cell proliferation suppressive effect on immature bone marrow erythrocytes.
# Specifically, the present compound was orally administered to rats twice 24 hours apart, and bone marrow smears were prepared 18 to 24 hours after the last administration. 2000 immature erythrocytes (IEs) were observed per individual, and the percentage of micronucleated immature erythrocytes (micronucleated IEs, MNIEs) contained in the immature erythrocytes [MNIEs (%)] was calculated. In addition, 1000 erythrocytes were observed as the total erythrocyte count per individual, and the percentage of IEs in the total erythrocytes [IEs (%)] was determined.
# [7] = 30, 60, 120, 250 mg/kg/day oral, 4 weeks
# [8] = 120 to 180 mg/day oral, 14 days
# [9] = after the start of administration, excluding undescribed and discontinued cases
# [10] = start of administration to end of observation, 26 patients
smiles,measurement,setting,value
"O=C(Nc1ccc(Cl)cc1C(=O)[O-])c1cccc(-c2cccc3cccnc23)c1.[Na+] [present compound, sodium 5-chloro-2-({ [3-(quinolin-8-yl)phenyl]carbonyl}amino)benzoate]",deaths during the administration period,rats [1]; [7],No deaths
same,"effect on general condition, body weight, food consumption, ophthalmology, ECG, hematology, urinalysis, necropsy, organ weights",rats [1]; [7],No effect
same,no-observed-adverse-effect level,"rats [1]; rats, males and females, 4-week repeated oral dose",250 mg/kg/day
same,effect on the cardiovascular system or the respiratory system,[2],no effect
same,deterioration of oxygenation requiring mechanical ventilation,[3]; [8],no cases
same,number of days required for oxygen administration after the start of administration,[3]; [8],gradually decreased
same,survival for 28 days from the start of administration,[3]; [8],all cases survived
same,"adverse events in patients concomitantly treated with Remdesivir, Avigan, inhaled steroid or antiplatelet agent","[3]; Remdesivir 8, Avigan 5, inhaled steroid 22, antiplatelet agent 5 cases",no adverse events requiring treatment
same,Number of cases with duration of hospitalization 8 to 12 days,[3]; [9],5
same,Number of cases with duration of hospitalization 13 to 17 days,[3]; [9],12
same,Number of cases with duration of hospitalization 18 to 22 days,[3]; [9],4
same,"number of cases, oxygen dosage 0 L/day",[3]; day 1,3
same,"number of cases, oxygen dosage 2 or less L/day",[3]; day 1,12
same,"number of cases, oxygen dosage 5 or more L/day",[3]; day 1,3
same,"number of cases, oxygen dosage More than 2 less than 5 L/day",[3]; day 1,5
same,"number of cases, oxygen dosage 0 L/day",[3]; day 2,3
same,"number of cases, oxygen dosage 2 or less L/day",[3]; day 2,12
same,"number of cases, oxygen dosage 5 or more L/day",[3]; day 2,2
same,"number of cases, oxygen dosage More than 2 less than 5 L/day",[3]; day 2,6
same,"number of cases, oxygen dosage 0 L/day",[3]; day 3,4
same,"number of cases, oxygen dosage 2 or less L/day",[3]; day 3,13
same,"number of cases, oxygen dosage 5 or more L/day",[3]; day 3,0
same,"number of cases, oxygen dosage More than 2 less than 5 L/day",[3]; day 3,6
same,"number of cases, oxygen dosage 0 L/day",[3]; day 4,7
same,"number of cases, oxygen dosage 2 or less L/day",[3]; day 4,11
same,"number of cases, oxygen dosage 5 or more L/day",[3]; day 4,0
same,"number of cases, oxygen dosage More than 2 less than 5 L/day",[3]; day 4,5
same,"number of cases, oxygen dosage 0 L/day",[3]; day 5,7
same,"number of cases, oxygen dosage 2 or less L/day",[3]; day 5,12
same,"number of cases, oxygen dosage 5 or more L/day",[3]; day 5,0
same,"number of cases, oxygen dosage More than 2 less than 5 L/day",[3]; day 5,4
same,"number of cases, oxygen dosage 0 L/day",[3]; day 6,10
same,"number of cases, oxygen dosage 2 or less L/day",[3]; day 6,9
same,"number of cases, oxygen dosage 5 or more L/day",[3]; day 6,0
same,"number of cases, oxygen dosage More than 2 less than 5 L/day",[3]; day 6,4
same,"number of cases, oxygen dosage 0 L/day",[3]; day 7,10
same,"number of cases, oxygen dosage 2 or less L/day",[3]; day 7,9
same,"number of cases, oxygen dosage 5 or more L/day",[3]; day 7,0
same,"number of cases, oxygen dosage More than 2 less than 5 L/day",[3]; day 7,4
same,"number of cases, oxygen dosage 0 L/day",[3]; day 8,12
same,"number of cases, oxygen dosage 2 or less L/day",[3]; day 8,10
same,"number of cases, oxygen dosage 5 or more L/day",[3]; day 8,0
same,"number of cases, oxygen dosage More than 2 less than 5 L/day",[3]; day 8,1
same,"number of cases, oxygen dosage 0 L/day",[3]; day 9,13
same,"number of cases, oxygen dosage 2 or less L/day",[3]; day 9,9
same,"number of cases, oxygen dosage 5 or more L/day",[3]; day 9,0
same,"number of cases, oxygen dosage More than 2 less than 5 L/day",[3]; day 9,1
same,"number of cases, oxygen dosage 0 L/day",[3]; day 10,17
same,"number of cases, oxygen dosage 2 or less L/day",[3]; day 10,6
same,"number of cases, oxygen dosage 5 or more L/day",[3]; day 10,0
same,"number of cases, oxygen dosage More than 2 less than 5 L/day",[3]; day 10,0
same,"number of cases, oxygen dosage 0 L/day",[3]; day 11,18
same,"number of cases, oxygen dosage 2 or less L/day",[3]; day 11,5
same,"number of cases, oxygen dosage 5 or more L/day",[3]; day 11,0
same,"number of cases, oxygen dosage More than 2 less than 5 L/day",[3]; day 11,0
same,"number of cases, oxygen dosage 0 L/day",[3]; day 12,20
same,"number of cases, oxygen dosage 2 or less L/day",[3]; day 12,3
same,"number of cases, oxygen dosage 5 or more L/day",[3]; day 12,0
same,"number of cases, oxygen dosage More than 2 less than 5 L/day",[3]; day 12,0
same,"number of cases, oxygen dosage 0 L/day",[3]; day 13,21
same,"number of cases, oxygen dosage 2 or less L/day",[3]; day 13,2
same,"number of cases, oxygen dosage 5 or more L/day",[3]; day 13,0
same,"number of cases, oxygen dosage More than 2 less than 5 L/day",[3]; day 13,0
same,"number of cases, oxygen dosage 0 L/day",[3]; day 14,22
same,"number of cases, oxygen dosage 2 or less L/day",[3]; day 14,1
same,"number of cases, oxygen dosage 5 or more L/day",[3]; day 14,0
same,"number of cases, oxygen dosage More than 2 less than 5 L/day",[3]; day 14,0
same,number of cases with reduced proportion of lesions in the lung field on chest CT images,"[3]; out of 18 cases, administration for 14 days",13 cases
same,adverse events related to the present compound and requiring treatment,[3]; start of administration to end of observation,no adverse events that were related to the present compound and that required treatment
same,number of adverse events,[3]; [10],33
same,number of patients with adverse events,[3]; [10],17 patients
same,period stable in the accelerated stability study,[4]; 6 months,at least 6 months
same,"change from the state before storage (appearance, identification, water content, content, purity)","[4]; 40° C., 75% RH, after 1, 3 and 6 months, shipping packaging",no change
same,"no-observed-adverse-effect level in the parent animals, including fertility",rats [5],1000 mg/kg/day
same,no-observed-adverse-effect level with respect to early embryogenesis,rats [5],1000 mg/kg/day
same,micronucleus-inducing effect on immature rat bone marrow erythrocytes,[6],no micronucleus-inducing effect
same,proliferation suppressive effect on bone marrow cells,[6],no proliferation suppressive effect
